From patent US20100087424A1, “TRICYCLIC NITROGEN CONTAINING HETEROCYCLES AS ANTIBACTERIAL AGENTS” (Glaxo Group Limited, priority 2007, published 2010)
Where a name gives a salt, the structure may show the parent alone.

System: Mycobacterium tuberculosis H37Rv
Assay: Mycobacterium tuberculosis H37Rv Inhibition Assay (resazurin fluorescence)
Format: cell-based
Conditions: ATCC 25618 / H37Rv, read-out: MIC value, H37Rv strain (ATCC25618), Middlebrook 7H9+ADC, six days at 37° C., resazurin read after 48 hours

Row | SMILES | MIC [µg/mL]
1 | O=C(O)c1ccccc1.O=c1ccc2ncc(F)c3c2n1[C@H](CN1CCC(NCc2cc4c(nn2)OCCS4)CC1)CO3 [Example 48, (6R)-6-({4-[(6,7-dihydro[1,4]oxathiino[2,3-c]pyridazin-3-ylmethyl)amino]-1-piperidinyl}methyl)-3-fluoro-5,6-dihydro-8H-[1,4]oxazino[2,3,4-de]-1,5-naphthyridin-8-one benzoate] | ≤ 2.8
2 | O=c1ccc2ccc(F)c3c2n1[C@H](CN1CC[C@H](NCc2cc4c(cn2)OCCO4)[C@H](O)C1)CO3 [Example 20, (3R)-3-({(3R,4S)-4-[(2,3-Dihydro[1,4]dioxino[2,3-c]pyridin-7-ylmethyl)amino]-3-hydroxy-1-piperidinyl}methyl)-10-fluoro-2,3-dihydro-5H-[1,4]oxazino[2,3,4-ij]quinolin-5-one dihydrochloride] | ≤ 2.8
3 | O=c1ccc2ncc(F)c3c2n1[C@H](CN1CC[C@H](NCc2cc4c(cn2)OCCO4)[C@H](O)C1)CC3 [Example 30, 6-({(3R,4S)-4-[(2,3-dihydro[1,4]dioxino[2,3-c]pyridin-7-ylmethyl)amino]-3-hydroxy-1-piperidinyl}methyl)-3-fluoro-5,6-dihydro-4H,8H-pyrido[3,2,1-de]-1,5-naphthyridin-8-one dihydrochloride] | ≤ 2.8
